Like-named read-outs stand apart in the source and are kept apart here.
Experiments:
HIV-1 = assay: MT-4 cell infectivity assay; assay type: cell-based; conditions: MT-4 cells
HIV-1 IN = target: T1, HIV-1 IN (Human immunodeficiency virus type 1 group M subtype B, UniProt P12497); assay: In vitro IN inhibition assay (3’-processing and strand transfer); assay type: biochemical
T1 construct: pre-incubated with purified recombinant IN (at a final concentration of 200 nM); made in house
Procedure, shortened: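 Recombinant HIV-1 IN (200 nM) preincubated with compound 30 min at 30 °C in MnCl2-containing buffer (MgCl2 plus PEG for Mg2+ format), then 1 h with 20 nM 5'-32P-labeled 21-mer duplex. 3'-processing and strand-transfer products resolved on denaturing gels, phosphorimager-quantified; IC50 from log-concentration versus % inhibition.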

[1] = target: T2, human apurinic/apyrimidinic endonuclease 1 (APE1) (Homo sapiens, UniProt P27695); assay: APE1 inhibition assay; assay type: biochemical; conditions: for APE1 inhibition (in words): at 100 μM; for IC50: read-out: Inhibition of APE1 catalytic activity IC50
T2 construct: His; made in house
Procedure, shortened: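 His-tagged APE1 (0.05 nM) preincubated with compound 10 min at 30 °C in MOPS pH 7.2 buffer with 7.5 mM MnCl2 and 10% DMSO, then 200 nM 5′-32P-labelled abasic (THF) duplex added for 10 min. Incision products resolved on denaturing gel, phosphorimaged; IC50 from %I versus log concentration.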

IN = tested on: IN; design: method as in PMID 15634005; conditions: cited from earlier work
[2] = Mn2+ cofactor (7.5 mM MnCl2), read-out: Inhibition of IN catalytic activity IC50, 3’-Processing
[3] = Mn2+ cofactor (7.5 mM MnCl2), read-out: Inhibition of IN catalytic activity IC50, Strand Transfer

T2 sequence (P27695 whole entry): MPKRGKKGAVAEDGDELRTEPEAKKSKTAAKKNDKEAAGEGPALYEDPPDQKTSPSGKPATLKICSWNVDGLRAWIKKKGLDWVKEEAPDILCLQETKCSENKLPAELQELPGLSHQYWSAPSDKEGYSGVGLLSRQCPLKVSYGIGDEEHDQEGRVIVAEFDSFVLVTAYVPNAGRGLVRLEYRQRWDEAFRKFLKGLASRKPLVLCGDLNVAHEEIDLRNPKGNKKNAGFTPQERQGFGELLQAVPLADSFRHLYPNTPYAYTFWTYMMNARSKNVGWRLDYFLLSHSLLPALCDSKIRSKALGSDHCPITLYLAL

Structure (SMILES) | antiviral activity against HIV-1 (HIV-1) | melting point | IC50 (HIV-1 IN; [2]) | IC50 (HIV-1 IN; [3]) | APE1 inhibition (in words) [1] | IC50 [1] | IC50 (IN; read-out: IC50, 3’-processing) | IC50 (IN; read-out: IC50, strand transfer) | selectivity for IN than APE1 (HIV-1 IN; IN versus APE1) | IC50 (HIV-1 IN; in the presence of Mg^2+ as the cofactor, read-out: Inhibition of IN catalytic activity IC50, 3’-Processing, Mg2+ (converted)) | IC50 (HIV-1 IN; in the presence of Mg^2+ as the cofactor, read-out: Inhibition of IN catalytic activity IC50, Strand Transfer, Mg2+ (converted))
O=C(Nc1ccc(O)cc1)C(=S)NN1C(=O)C(=Cc2cc(N=Nc3ccccc3)ccc2O)SC1=S [Compound 48, N-(4-hydroxyphenyl)-2-[(5-{2-hydroxy-5-[(E)-phenyldiazenyl]benzylidene}-4-oxo-2-thioxo-1,3-thiaz-olidin-3-yl)amino]-2-thioxoacetamide] | did not show any significant antiviral activity | 145 to 146 °C | 17 ± 7 µM | 8 ± 2 µM | did not show any significant APE1 inhibition | > 100 µM |  |  |  |  | 
O=C(O)c1ccc(N2C(=O)/C(=C/c3ccccc3)SC2=S)cc1 [Compound 1] |  |  |  |  |  |  | 15 µM | 11 µM |  |  | 
O=C(Nc1ccc(O)cc1)C(=S)NN1C(=O)C(=Cc2cc(I)cc(I)c2O)SC1=S [Compound 53, 2-{[5-(2-Hydroxy-3,5-diiodobenzylidene)-4-oxo-2-thioxo-1,3-thiazolidin-3-yl]amino}-N-(4-hydroxy-phenyl)-2-thioxoacetamide] | did not show any significant antiviral activity | 157 to 158 °C | 7 ± 3 µM | 3 ± 2 µM |  | 62 ± 3 µM |  |  | 20 fold | 12.5 µM | 11 µM
O=C(Nc1ccc(O)cc1)C(=S)NN1C(=O)C(=Cc2cc(Br)cc(Br)c2O)SC1=S [Compound 51, 2-{[5-(3,5-Dibromo-2-hydroxybenzylidene)-4-oxo-2-thioxo-1,3-thiazolidin-3-yl]amino}-N-(4-hydroxy-phenyl)-2-thioxoacetamide] | did not show any significant antiviral activity | 189 to 190 °C | 28 ± 1 µM | 21 ± 7 µM | did not show any significant APE1 inhibition | > 100 µM |  |  |  |  | 
COc1cc(NC(=O)C(=S)NN2C(=O)C(=Cc3cccc([N+](=O)[O-])c3O)SC2=S)cc(OC)c1OC [Compound 29, 2-{[5-(2-Hydroxy-3-nitrobenzylidene)-4-oxo-2-thioxo-1,3-thiazolidin-3-yl]amino}-2-thioxo-N-(3,4,5-trimethoxyphenyl)acetamide] |  | 193 to 194 °C | 74 ± 18 µM | 72 ± 23 µM |  | > 100 µM |  |  |  |  | 

Reference: article PMC6264390, “Design, Synthesis and Structure-activity Studies of Rhodanine Derivatives as HIV-1 Integrase Inhibitors” (Molecules, 2010)
